Measured values: PubChem BioAssay (NCI)
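These data come from cells grown in 96-well plates and exposed to compound for 48 hours at five concentrations. TGI: total growth inhibition.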

How the values were obtained:
Test in all cases: NCI tumour cell line growth inhibition, 48 h
SW-620 colon = tested on: SW-620 colon
A498 renal = tested on: A498 renal
ACHN renal = tested on: ACHN renal
MCF7 breast = tested on: MCF7 breast
TK-10 renal = tested on: TK-10 renal
SF-295 CNS = tested on: SF-295 CNS
KM12 colon = tested on: KM12 colon
UO-31 renal = tested on: UO-31 renal
SK-MEL-28 melanoma = tested on: SK-MEL-28 melanoma
RXF 393 renal = tested on: RXF 393 renal
SK-MEL-2 melanoma = tested on: SK-MEL-2 melanoma
HS 578T breast = tested on: HS 578T breast
MDA-MB-435 = tested on: MDA-MB-435
HCT-116 colon = tested on: HCT-116 colon
IGROV1 ovarian = tested on: IGROV1 ovarian
786-0 renal = tested on: 786-0 renal
K-562 leukemia = tested on: K-562 leukemia
NCI-H23 lung = tested on: NCI-H23 lung
LOX IMVI melanoma = tested on: LOX IMVI melanoma
OVCAR-5 ovarian = tested on: OVCAR-5 ovarian
MDA-MB-231 breast = tested on: MDA-MB-231 breast
NCI-H460 lung = tested on: NCI-H460 lung
DU-145 prostate = tested on: DU-145 prostate
U251 CNS = tested on: U251 CNS
EKVX NSCLC = tested on: EKVX NSCLC
UACC-62 melanoma = tested on: UACC-62 melanoma
NCI-H226 lung = tested on: NCI-H226 lung
OVCAR-8 ovarian = tested on: OVCAR-8 ovarian
PC-3 prostate = tested on: PC-3 prostate
SK-OV-3 ovarian = tested on: SK-OV-3 ovarian
CAKI-1 renal = tested on: CAKI-1 renal
SK-MEL-5 melanoma = tested on: SK-MEL-5 melanoma
HL-60(TB) leukemia = tested on: HL-60(TB) leukemia
HOP-92 NSCLC = tested on: HOP-92 NSCLC
M14 melanoma = tested on: M14 melanoma
A549 NSCLC = tested on: A549 NSCLC
SF-268 CNS = tested on: SF-268 CNS
SN12C renal = tested on: SN12C renal
BT-549 breast = tested on: BT-549 breast
MALME-3M melanoma = tested on: MALME-3M melanoma
T-47D breast = tested on: T-47D breast
HCC-2998 colon = tested on: HCC-2998 colon
HCT-15 colon = tested on: HCT-15 colon
SR leukemia = tested on: SR leukemia
OVCAR-4 ovarian = tested on: OVCAR-4 ovarian
MOLT-4 leukemia = tested on: MOLT-4 leukemia
SNB-19 CNS = tested on: SNB-19 CNS
OVCAR-3 ovarian = tested on: OVCAR-3 ovarian
HT29 colon = tested on: HT29 colon
SNB-75 CNS = tested on: SNB-75 CNS
MDA-N = tested on: MDA-N
HOP-62 NSCLC = tested on: HOP-62 NSCLC
SF-539 CNS = tested on: SF-539 CNS
COLO 205 colon = tested on: COLO 205 colon
CCRF-CEM leukemia = tested on: CCRF-CEM leukemia
NCI-H522 lung = tested on: NCI-H522 lung
NCI/ADR-RES ovarian = tested on: NCI/ADR-RES ovarian
UACC-257 melanoma = tested on: UACC-257 melanoma
RPMI-8226 leukemia = tested on: RPMI-8226 leukemia

COc1ccc(C2=Cc3nc2c(-c2ccccc2)c2ccc([nH]2)c(-c2ccccc2)c2nc(c(-c4ccccc4)c4ccc([nH]4)c3-c3ccccc3)C=C2)cc1
TGI (SW-620 colon): > 100 µM | TGI (A498 renal): > 100 µM | TGI (ACHN renal): > 100 µM | TGI (MCF7 breast): > 100 µM | TGI (TK-10 renal): > 100 µM | TGI (SF-295 CNS): > 100 µM | TGI (KM12 colon): > 100 µM | TGI (UO-31 renal): > 100 µM | TGI (SK-MEL-28 melanoma): > 100 µM | TGI (RXF 393 renal): > 100 µM | TGI (SK-MEL-2 melanoma): > 100 µM | TGI (HS 578T breast): > 100 µM | TGI (MDA-MB-435): > 100 µM | TGI (HCT-116 colon): > 100 µM | TGI (IGROV1 ovarian): > 100 µM | TGI (786-0 renal): > 100 µM | TGI (K-562 leukemia): > 100 µM | TGI (NCI-H23 lung): > 100 µM | TGI (LOX IMVI melanoma): > 100 µM | TGI (OVCAR-5 ovarian): > 100 µM | TGI (MDA-MB-231 breast): > 100 µM | TGI (NCI-H460 lung): > 100 µM | TGI (DU-145 prostate): > 100 µM | TGI (U251 CNS): 91.3 µM | TGI (EKVX NSCLC): > 100 µM | TGI (UACC-62 melanoma): > 100 µM | TGI (NCI-H226 lung): > 100 µM | TGI (OVCAR-8 ovarian): > 100 µM | TGI (PC-3 prostate): > 100 µM | TGI (SK-OV-3 ovarian): > 100 µM | TGI (CAKI-1 renal): > 100 µM | TGI (SK-MEL-5 melanoma): > 100 µM | TGI (HL-60(TB) leukemia): > 100 µM | TGI (HOP-92 NSCLC): > 100 µM | TGI (M14 melanoma): > 100 µM | TGI (A549 NSCLC): > 100 µM | TGI (SF-268 CNS): > 100 µM | TGI (SN12C renal): > 100 µM | TGI (BT-549 breast): > 100 µM | TGI (MALME-3M melanoma): > 100 µM | TGI (T-47D breast): > 100 µM | TGI (HCC-2998 colon): > 100 µM | TGI (HCT-15 colon): > 100 µM | TGI (SR leukemia): > 100 µM | TGI (OVCAR-4 ovarian): > 100 µM | TGI (MOLT-4 leukemia): > 100 µM | TGI (SNB-19 CNS): > 100 µM | TGI (OVCAR-3 ovarian): > 100 µM | TGI (HT29 colon): > 100 µM | TGI (SNB-75 CNS): > 100 µM | TGI (MDA-N): > 100 µM | TGI (HOP-62 NSCLC): > 100 µM | TGI (SF-539 CNS): > 100 µM | TGI (COLO 205 colon): > 100 µM | TGI (CCRF-CEM leukemia): > 100 µM

CC[C@@]1(C[C@H]2C[C@@]3(C(=O)OC)c4[nH]c5ccccc5c4CCN3C2=S)COC2(CCCCC2)O1
TGI (SW-620 colon): 36.2 µM | TGI (A498 renal): > 100 µM | TGI (ACHN renal): > 100 µM | TGI (MCF7 breast): > 100 µM | TGI (TK-10 renal): 87.7 µM | TGI (SF-295 CNS): > 100 µM | TGI (KM12 colon): 67.8 µM | TGI (UO-31 renal): > 100 µM | TGI (RXF 393 renal): > 100 µM | TGI (NCI-H522 lung): > 100 µM | TGI (SK-MEL-2 melanoma): > 100 µM | TGI (HS 578T breast): > 100 µM | TGI (MDA-MB-435): > 100 µM | TGI (HCT-116 colon): > 100 µM | TGI (IGROV1 ovarian): > 100 µM | TGI (786-0 renal): > 100 µM | TGI (K-562 leukemia): > 100 µM | TGI (NCI/ADR-RES ovarian): > 100 µM | TGI (NCI-H23 lung): > 100 µM | TGI (LOX IMVI melanoma): > 100 µM | TGI (OVCAR-5 ovarian): > 100 µM | TGI (NCI-H460 lung): > 100 µM | TGI (DU-145 prostate): > 100 µM | TGI (U251 CNS): > 100 µM | TGI (EKVX NSCLC): > 100 µM | TGI (UACC-62 melanoma): > 100 µM | TGI (OVCAR-8 ovarian): > 100 µM | TGI (PC-3 prostate): > 100 µM | TGI (SK-OV-3 ovarian): > 100 µM | TGI (CAKI-1 renal): > 100 µM | TGI (SK-MEL-5 melanoma): 39 µM | TGI (HL-60(TB) leukemia): > 100 µM | TGI (HOP-92 NSCLC): > 100 µM | TGI (M14 melanoma): > 100 µM | TGI (A549 NSCLC): > 100 µM | TGI (UACC-257 melanoma): > 100 µM | TGI (SF-268 CNS): > 100 µM | TGI (SN12C renal): > 100 µM | TGI (BT-549 breast): 41.6 µM | TGI (MALME-3M melanoma): > 100 µM | TGI (T-47D breast): > 100 µM | TGI (HCC-2998 colon): > 100 µM | TGI (HCT-15 colon): > 100 µM | TGI (SR leukemia): > 100 µM | TGI (OVCAR-4 ovarian): > 100 µM | TGI (MOLT-4 leukemia): > 100 µM | TGI (SNB-19 CNS): > 100 µM | TGI (OVCAR-3 ovarian): > 100 µM | TGI (HT29 colon): > 100 µM | TGI (SNB-75 CNS): > 100 µM | TGI (MDA-N): > 100 µM | TGI (HOP-62 NSCLC): > 100 µM | TGI (SF-539 CNS): > 100 µM | TGI (COLO 205 colon): > 100 µM | TGI (CCRF-CEM leukemia): > 100 µM

COC(=O)Nc1nc2ccc(NS(=O)(=O)c3ccc(Cl)cc3)cc2[nH]1
TGI (SW-620 colon): > 100 µM | TGI (A498 renal): 9.91 µM | TGI (ACHN renal): > 100 µM | TGI (MCF7 breast): 35.7 µM | TGI (TK-10 renal): 17.7 µM | TGI (SF-295 CNS): 19.2 µM | TGI (KM12 colon): 14.9 µM | TGI (UO-31 renal): 40.7 µM | TGI (SK-MEL-28 melanoma): 27.3 µM | TGI (RXF 393 renal): 26.4 µM | TGI (NCI-H522 lung): 8.19 µM | TGI (SK-MEL-2 melanoma): 26.8 µM | TGI (HS 578T breast): 8.86 µM | TGI (MDA-MB-435): 5.5 µM | TGI (HCT-116 colon): 11.1 µM | TGI (IGROV1 ovarian): 7.81 µM | TGI (786-0 renal): 56.3 µM | TGI (K-562 leukemia): > 100 µM | TGI (NCI/ADR-RES ovarian): 47.7 µM | TGI (NCI-H23 lung): 36.9 µM | TGI (LOX IMVI melanoma): 16.9 µM | TGI (OVCAR-5 ovarian): 44.6 µM | TGI (MDA-MB-231 breast): 28.5 µM | TGI (NCI-H460 lung): 43.1 µM | TGI (DU-145 prostate): 62.6 µM | TGI (U251 CNS): 47.5 µM | TGI (EKVX NSCLC): 33.2 µM | TGI (UACC-62 melanoma): 33.5 µM | TGI (RPMI-8226 leukemia): 26.8 µM | TGI (NCI-H226 lung): 47.2 µM | TGI (OVCAR-8 ovarian): 54.7 µM | TGI (PC-3 prostate): 54.3 µM | TGI (SK-OV-3 ovarian): 44.2 µM | TGI (CAKI-1 renal): 21.1 µM | TGI (SK-MEL-5 melanoma): 16.7 µM | TGI (HL-60(TB) leukemia): 12.6 µM | TGI (HOP-92 NSCLC): 8.55 µM | TGI (M14 melanoma): 23.4 µM | TGI (A549 NSCLC): 72.1 µM | TGI (SF-268 CNS): 67 µM | TGI (SN12C renal): 72.3 µM | TGI (BT-549 breast): 55.2 µM | TGI (MALME-3M melanoma): 43.7 µM | TGI (T-47D breast): 60.7 µM | TGI (HCT-15 colon): > 100 µM | TGI (OVCAR-4 ovarian): 51.5 µM | TGI (MOLT-4 leukemia): > 100 µM | TGI (SNB-19 CNS): 29.6 µM | TGI (OVCAR-3 ovarian): 10.7 µM | TGI (HT29 colon): 15.5 µM | TGI (SNB-75 CNS): 7.59 µM | TGI (MDA-N): 5.93 µM | TGI (HOP-62 NSCLC): 31.5 µM | TGI (SF-539 CNS): 30.4 µM | TGI (COLO 205 colon): 24.5 µM | TGI (CCRF-CEM leukemia): 56.9 µM
